Values joined by “and” are separate entries in the source; they are usually repeats but may differ in a detail not shown here. Equal entries are not always repeated.
Key:
[1] = Cytotoxicity assay (CellTiter-Glo, 72 h), SKOV-3; assay type: cell-based, human; settings: human, raw replicate data, read-out: SKOV3 viability (%)
Procedure, shortened: (§1)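 Incubate 4 h at 37 °C, 5% CO2. Add 2-fold compound dilutions, 0.5% DMSO. After 72 h, read CellTiter-Glo luminescence.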

[2] = tested on: human ovarian adenocarcinoma SKOV-3 cells; test: Cytotoxicity assay (CellTiter-Glo, 72 h), SKOV-3; assay type: cell-based; settings: raw replicate data
Procedure, shortened: as §1

[3] = tested on: Jurkat, SKOV-3 and MESO-1 cells; test: Cytotoxicity assay, statements for all tested cell lines together; assay type: cell-based; settings: Jurkat, SKOV-3 and MESO-1 cells, 72 h
Procedure, shortened: as §1

[4] = Cytotoxicity assay (CellTiter-Glo, 72 h), Jurkat; assay type: cell-based; settings: human, Jurkat cells (T lymphoma), raw data (replicates)
Procedure, shortened: as §1

[5] = tested on: T lymphoma Jurkat cells; test: Cytotoxicity assay (CellTiter-Glo, 72 h), Jurkat; assay type: cell-based; settings: raw data (replicates)
Procedure, shortened: as §1

[6] = target: T1, FKBP12 and mTOR (Homo sapiens, UniProt P42345+P62942); test: Fluoppi analysis: induction of FKBP12-mTOR complex formation in transfected HeLa cells; assay type: cell-based; settings: for Foci intensity: raw data, one replicate per line
T1 construct: host or cells: HeLa cells
T1 sequence (P42345 2025-2114 limits assumed): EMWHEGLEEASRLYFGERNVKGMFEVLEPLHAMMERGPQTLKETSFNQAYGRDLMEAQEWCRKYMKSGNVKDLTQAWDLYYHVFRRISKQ
T1 sequence (P62942 whole entry): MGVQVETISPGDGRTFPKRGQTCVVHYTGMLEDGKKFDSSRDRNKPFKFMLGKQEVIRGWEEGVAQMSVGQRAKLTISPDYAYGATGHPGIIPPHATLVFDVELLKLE
Procedure, shortened: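 Complex formation read as fluorescent foci: foci intensity over total per-cell intensity, imaged (×20, 9 fields/well) after fixation and Hoechst stain, giving EC50. Cells: HeLa transiently expressing hAG-mTOR and Ash-FKBP12, exposed to compound concentrations for 1 h at 37 °C.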

SMILES: COC1CC2CCC(C)C(O)(O2)C(=O)C(=O)N2CCCCC2C(=O)OC(C(C)CC2CCC(O)C(OC)C2)CC(O)CC(=O)C(C)C=C(C)C(O)CC(=O)C(C)CC(C)C=CC=CC=C1C (stereo not shown) [Compound 13]
- viability at 72 h, 9.53674e-05 uM ([1]; SKOV-3 cells (ovarian adenocarcinoma), conc 9.53674e-5 uM): 101%
- viability at 72 h, 0.000190735 uM ([1]; SKOV-3 cells (ovarian adenocarcinoma), conc 0.000190735 uM): 105%
- viability at 72 h, 0.00038147 uM ([1]; SKOV-3 cells (ovarian adenocarcinoma), conc 0.00038147 uM): 103%
- viability at 72 h, 0.000762939 uM ([1]; SKOV-3 cells (ovarian adenocarcinoma), conc 0.000762939 uM): 104%
- viability at 72 h, 0.00152588 uM ([1]; SKOV-3 cells (ovarian adenocarcinoma), conc 0.00152588 uM): 106%
- viability at 72 h, 0.00305176 uM ([1]; SKOV-3 cells (ovarian adenocarcinoma), conc 0.00305176 uM): 104%
- viability at 72 h, 0.00610352 uM ([1]; SKOV-3 cells (ovarian adenocarcinoma), conc 0.00610352 uM): 104%
- viability at 72 h, 0.012207 uM ([1]; SKOV-3 cells (ovarian adenocarcinoma), conc 0.012207 uM): 100%
- viability at 72 h, 0.0244141 uM ([1]; SKOV-3 cells (ovarian adenocarcinoma), conc 0.0244141 uM): 97.8%
- viability at 72 h, 0.0488281 uM ([1]; SKOV-3 cells (ovarian adenocarcinoma), conc 0.0488281 uM): 100%
- viability at 72 h, 0.0976562 uM ([1]; SKOV-3 cells (ovarian adenocarcinoma), conc 0.0976562 uM): 93.5%
- viability at 72 h, 0.195312 uM ([1]; SKOV-3 cells (ovarian adenocarcinoma), conc 0.195312 uM): 80.1%
- viability at 72 h, 0.390625 uM ([1]; SKOV-3 cells (ovarian adenocarcinoma), conc 0.390625 uM): 72.3%
- viability at 72 h, 12.5 uM ([1]; SKOV-3 cells (ovarian adenocarcinoma), conc 12.5 uM): 74%
- viability at 72 h, 25 uM ([1]; SKOV-3 cells (ovarian adenocarcinoma), conc 25 uM): 76.6%
- viability at 72 h, 50 uM ([1]; SKOV-3 cells (ovarian adenocarcinoma), conc 50 uM): 61.1%
- viability at 72 h, 0.78125 uM ([1]; SKOV-3 ovarian adenocarcinoma cells, conc 0.78125 uM): 70.5%
- viability at 72 h, 1.5625 uM ([1]; SKOV-3 ovarian adenocarcinoma cells, conc 1.5625 uM): 74.6%
- viability at 72 h, 3.125 uM ([1]; SKOV-3 ovarian adenocarcinoma cells, conc 3.125 uM): 67.3%
- viability at 72 h, 6.25 uM ([1]; SKOV-3 ovarian adenocarcinoma cells, conc 6.25 uM): 76.1%
- SKOV3 viability (%) ([2]; conc 9.53674e-5 uM): 107.4% and 106.9%
- SKOV3 viability (%) ([2]; conc 0.000190735 uM): 98.8% and 103.7%
- SKOV3 viability (%) ([2]; conc 0.00038147 uM): 108.6% and 110.4%
- SKOV3 viability (%) ([2]; conc 0.000762939 uM): 108.3% and 103.9%
- SKOV3 viability (%) ([2]; conc 0.00152588 uM): 101.0% and 99.9%
- SKOV3 viability (%) ([2]; conc 0.00305176 uM): 105.3% and 103.9%
- SKOV3 viability (%) ([2]; conc 0.00610352 uM): 110.1% and 106.3%
- SKOV3 viability (%) ([2]; conc 0.012207 uM): 101.2% and 96.8%
- SKOV3 viability (%) ([2]; conc 0.0244141 uM): 104.0%
- SKOV3 viability (%) ([2]; conc 0.0488281 uM): 98.0% and 96.8%
- SKOV3 viability (%) ([2]; conc 0.0976562 uM): 97.2% and 95.3%
- SKOV3 viability (%) ([2]; conc 0.195312 uM): 69.7% and 74.1%
- SKOV3 viability (%) ([2]; conc 0.390625 uM): 69.6% and 63.1%
- SKOV3 viability (%) ([2]; conc 0.78125 uM): 63.6% and 66.9%
- SKOV3 viability (%) ([2]; conc 1.5625 uM): 66.7%
- SKOV3 viability (%) ([2]; conc 3.125 uM): 68.3% and 74.5%
- SKOV3 viability (%) ([2]; conc 6.25 uM): 79.3% and 78.5%
- SKOV3 viability (%) ([2]; conc 12.5 uM): 75.9%
- SKOV3 viability (%) ([2]; conc 25 uM): 73.5% and 81.4%
- SKOV3 viability (%) ([2]; conc 50 uM): 55.5% and 58.9%
- Effect on cell viability, in words [3]: slightly suppressed the cell viabilities
- viability at 72 h, 9.53674e-05 uM ([4]; conc 9.53674e-5 uM): 100%
- viability at 72 h, 0.000190735 uM ([4]; conc 0.000190735 uM): 100%
- viability at 72 h, 0.00038147 uM ([4]; conc 0.00038147 uM): 108%
- viability at 72 h, 0.000762939 uM ([4]; conc 0.000762939 uM): 103%
- viability at 72 h, 0.00152588 uM ([4]; conc 0.00152588 uM): 98.1%
- viability at 72 h, 0.00305176 uM ([4]; conc 0.00305176 uM): 102%
- viability at 72 h, 0.00610352 uM ([4]; conc 0.00610352 uM): 100%
- viability at 72 h, 0.012207 uM ([4]; conc 0.012207 uM): 99.4%
- viability at 72 h, 0.0244141 uM ([4]; conc 0.0244141 uM): 103%
- viability at 72 h, 0.0488281 uM ([4]; conc 0.0488281 uM): 91.3%
- viability at 72 h, 0.0976562 uM ([4]; conc 0.0976562 uM): 69.5%
- viability at 72 h, 0.195312 uM ([4]; conc 0.195312 uM): 47.2%
- viability at 72 h, 0.390625 uM ([4]; conc 0.390625 uM): 37.5%
- viability at 72 h, 0.78125 uM ([4]; conc 0.78125 uM): 31.7%
- viability at 72 h, 1.5625 uM ([4]; conc 1.5625 uM): 30.7%
- viability at 72 h, 3.125 uM ([4]; conc 3.125 uM): 30.2%
- viability at 72 h, 6.25 uM ([4]; conc 6.25 uM): 29.2%
- viability at 72 h, 12.5 uM ([4]; conc 12.5 uM): 30.8%
- viability at 72 h, 25 uM ([4]; conc 25 uM): 24.7%
- viability at 72 h, 50 uM ([4]; conc 50 uM): 2.2%
- Jurkat viability (%) ([5]; conc 9.53674e-5 uM): 112.6% and 105.4%
- Jurkat viability (%) ([5]; conc 0.000190735 uM): 101.3% and 101.6%
- Jurkat viability (%) ([5]; conc 0.00038147 uM): 104.4% and 104.8%
- Jurkat viability (%) ([5]; conc 0.000762939 uM): 96.6% and 102.2%
- Jurkat viability (%) ([5]; conc 0.00152588 uM): 101.0% and 107.9%
- Jurkat viability (%) ([5]; conc 0.00305176 uM): 103.0% and 101.6%
- Jurkat viability (%) ([5]; conc 0.00610352 uM): 107.7% and 103.5%
- Jurkat viability (%) ([5]; conc 0.012207 uM): 102.1% and 101.9%
- Jurkat viability (%) ([5]; conc 0.0244141 uM): 102.7% and 105.0%
- Jurkat viability (%) ([5]; conc 0.0488281 uM): 92.1% and 89.3%
- Jurkat viability (%) ([5]; conc 0.0976562 uM): 67.5% and 74.1%
- Jurkat viability (%) ([5]; conc 0.195312 uM): 42.7% and 42.9%
- Jurkat viability (%) ([5]; conc 0.390625 uM): 37.1% and 36.6%
- Jurkat viability (%) ([5]; conc 0.78125 uM): 31.2% and 32.9%
- Jurkat viability (%) ([5]; conc 1.5625 uM): 32.3%
- Jurkat viability (%) ([5]; conc 3.125 uM): 28.8% and 27.1%
- Jurkat viability (%) ([5]; conc 6.25 uM): 32.0% and 30.5%
- Jurkat viability (%) ([5]; conc 12.5 uM): 29.9%
- Jurkat viability (%) ([5]; conc 25 uM): 25.3% and 24.9%
- Jurkat viability (%) ([5]; conc 50 uM): 1.7% and 1.8%
- PPI-inducing (binding enhancing) activity between FKBP12 and mTOR compared with rapamycin (1), in words ([6]; Fluoppi): relatively weaker activities
- EC50 ([6]; Fluoppi, HeLa cells, 1 h treatment, three independent biological replicates, read-out: EC50, induction of the formation of FKBP-mTOR complex): 73 nM
- Foci intensity ([6]; conc 9.53674e-5 uM): 0.02036 and 0.008593 and 0.006167
- Foci intensity ([6]; conc 0.000190735 uM): 0.01432 and 0.008145 and 0.01977
- Foci intensity ([6]; conc 0.00038147 uM): 0.01002 and 0.01191 and 0.006949
- Foci intensity ([6]; conc 0.000762939 uM): 0.02361 and 0.0319 and 0.02031
- Foci intensity ([6]; conc 0.00152588 uM): 0.02629 and 0.01654 and 0.01268
- Foci intensity ([6]; conc 0.00305176 uM): 0.02214 and 0.02006 and 0.01134
- Foci intensity ([6]; conc 0.00610352 uM): 0.03874 and 0.01998 and 0.01509
- Foci intensity ([6]; conc 0.012207 uM): 0.01596 and 0.01655 and 0.01094
- Foci intensity ([6]; conc 0.0244141 uM): 0.04032 and 0.02924 and 0.04626
- Foci intensity ([6]; conc 0.0488281 uM): 0.1206 and 0.1281 and 0.1053
- Foci intensity ([6]; conc 0.0976562 uM): 0.3145 and 0.2601 and 0.1852
- Foci intensity ([6]; conc 0.195312 uM): 0.3854 and 0.3277 and 0.371
- Foci intensity ([6]; conc 0.390625 uM): 0.4069 and 0.3307 and 0.3864
- Foci intensity ([6]; conc 0.78125 uM): 0.4181 and 0.3809 and 0.3423
- Foci intensity ([6]; conc 1.5625 uM): 0.3991 and 0.3532 and 0.4458
- Foci intensity ([6]; conc 3.125 uM): 0.3573 and 0.4306 and 0.409
- Foci intensity ([6]; conc 6.25 uM): 0.3647 and 0.3805 and 0.3539
- Foci intensity ([6]; conc 12.5 uM): 0.3743 and 0.3421 and 0.396
- Foci intensity ([6]; conc 25 uM): 0.3317 and 0.3763 and 0.373
- Foci intensity ([6]; conc 50 uM): 0.3749 and 0.3065 and 0.4374

Reference: publication PMC7419507, “In vitro Cas9-assisted editing of modular polyketide synthase genes to produce desired natural product derivatives” (Nature Communications, 2020)
